We go through one compound from PMC12661054, “The CIP2A-TOPBP1 axis facilitates mitotic DNA repair via MiDAS and MMEJ” (Nature Communications, 2025).

This experiment has as its system eGFP-TOPBP1 interaction with SLX4, MUS81, ERCC1, BTR complex. Briefly: eGFP-TOPBP1 co-immunoprecipitation, mitotic HEK293TN cells. The settings on record: eGFP-TOPBP1 Co-IP; RO-3306 7 µM, 30 min. It is filed as cell-based, human. How it is done:
GFP-Trap® Agarose Co-immunoprecipitation
HEK293TN cells were seeded to be ~25–30% confluence the next day in a 15 cm tissue culture dish. The following day cells were transfected using Lipofectamine 2000 transfection reagent (Thermo Fisher Scientific) with 24 µg of plasmid DNA encoding eGFP-SLX4 or eGFP-TOPBP1 expression cassettes following manufacturer’s instructions.
Forty eight hours post transfection cells were harvested after treatments as described, snap frozen on dry ice and stored at −80 °C. Cell pellets were removed from −80 storage and thawed on ice in 2.4 ml IP buffer 1 (100 mM NaCl, 0.2% Igepal CA-630, 1 mM MgCl2, 10% glycerol, 5 mM NaF, 50 mM Tris-HCl, pH 7.5), supplemented with EDTA Free […] protease inhibitor (Sigma Aldrich) and 25 U ml−1 Benzonase (Novagen). Cells were resuspended and rotated at 4 °C for 90 min. Benzonase was then inhibited by adjusted NaCl concentration to 200 mM and with the addition of 2 mM EDTA, followed by rotation for a further 30 min at 4 °C on a carousel. The cell suspension was then centrifuged at 16,000 x g for 25 min at 4 °C. In parallel, 20 µl agarose binding control bead (bab, Chromotek) slurry was washed with 500 µl IP buffer 2 (200 mM NaCl, 0.2% Igepal CA-630, 1 mM MgCl2, 10% glycerol, 5 mM NaF, 2 mM EDTA, 50 mM Tris-HCl, pH 7.5). The binding control beads were then centrifuged at 2500 x g for 2 min. The supernatant was then removed and the IP2 wash was repeated twice more. Cell lysates (soluble supernatant) were then collected added to the agarose binding control beads in 15 ml centrifuge tubes and subsequently rotated at 4 °C on carousel for 60 min. The agarose binding control beads were then pelleted by centrifugation at 2000 x g for 2 min, the supernatant was then transferred to a new tube. BCA assay was then carried out to determine the protein concentration of the pre-cleared cell lysate. […] The supernatant, now containing eluted material, was transferred to a new 1.5 ml microcentrifuge tube ready for downstream western blot analysis.

Take `O=C1NC(=NCc2cccs2)S/C1=C\c1ccc2ncccc2c1` [CDK1i]: the “interaction between TOPBP1 and MUS81 or ERCC1” value is “disrupted the interaction between TOPBP1 and MUS81 or ERCC1”; the “interaction between TOPBP1 and components of the BTR complex” value is “did not affect the interaction between TOPBP1 and components of the BTR complex”; the “interaction between eGFP-TOPBP1 and SLX4” value is “hindered the interaction between eGFP-TOPBP1 and SLX4”.
